Where “and” joins values, the source holds several entries; their conditions need not be identical. Equal values may be shown once. Read-outs that look alike come from different tables or passages of the source.
Columns and labels:
A549 cells = assay: Growth inhibition of parental NSCLC cells; format: cell-based, human
Method: (§1) The growth inhibition rate GI50 was calculated by GraphPadPrism5.

[1] = system: vincristine-resistant KB/V cells; assay: Growth inhibition of vincristine-resistant oral epidermoid carcinoma cells; conditions: for GI50: Homo sapiens, KBV, read-out: GI50 ± SD; for RI: resistance index: ratio of GI50 KB/V to KB
Method: (§6) Adherent cells: PC-3, HepG-2, HCT-116, and Hela cells were inoculated into a 96-well plate at a density of 1,000-3,500 cells/mL. After incubation overnight, 100 μL of culture medium supplemented with various concentrations of compounds was added to each well. After incubation for 96 h, 50 μL of methyl thiazolyl tetrazolium (MTT) solution (2 mg/mL) was added to each well and incubated at 37° C. for 4 h. The culture medium was suctioned, and the cells were dissolved in 200 μL of DMSO. The absorbance at 570 nm was measured by using a microplate reader. The growth inhibition rate GI50 was calculated by GraphPadPrism5.
(§7) The cells used in the assay included human NSCLC A549 cells and paclitaxel-resistant A549/T cells, human breast cancer MCF-7 cells and paclitaxel-resistant MCF-7/T cells, human breast cancer MX-1 cells and paclitaxel-resistant MX-1/T cells, and human oral epidermoid carcinoma KB cells and vincristine-resistant KB/V cells.
(§8) A549 and A549/T cells were cultured in 1640 Medium, while MX-1, MX-1/T, MCF-7, MCF-7/T, KB, and KB/V cells were cultured in DMEM supplemented with 10% inactivated FBS, 10 mmol/L L-glutamine, 100 U/mL penicillin, and 100 μg/mL streptomycin in a 37° C., 5% CO2 and saturated humidity incubator.

[2] = system: paclitaxel-resistant A549/T cells; conditions: 96 h
Method: (§9) After incubation overnight, 100 μL of culture medium supplemented with various concentrations of compounds was added to each well. After incubation for 96 h, 50 μL of methyl thiazolyl tetrazolium (MTT) solution (2 mg/mL) was added to each well and incubated at 37° C. for 4 h. The culture medium was suctioned, and the cells were dissolved in 200 μL of DMSO. The absorbance at 570 nm was measured by using a microplate reader. The growth inhibition rate GI50 was calculated by GraphPadPrism5.

[3] = system: paclitaxel-resistant A549/T cells; assay: cells; conditions: Homo sapiens, A549, read-out: GI50 ± SD
Method: as §6, §7, §8
(§10) Cell lines used in the assay included human NSCLC A549 cells and paclitaxel-resistant A549/T cells.

HepG-2 = assay: Cell growth inhibition assay, adherent cells, MTT, 96 h; format: cell-based; conditions: Homo sapiens, HepG2; HepG-2, liver cancer, 96 h MTT
Method: (§2) Human acute myeloid leukemia cells HL-60, human chronic myeloid leukemia cells K562, human prostate cancer cell line PC-3, human hepatoma cells HepG-2, human colon cancer cells HC-T116, and human cervical cancer cell line Hela were purchased from American Type Culture Collection (ATCC). Human acute myeloid leukemia cells MOLM-13 were purchased from DSMZ-Deutsche Sammlung von Mikroorganismen und Zellkulturen GmbH (Braunschweig Germany).
as §1

Hela = assay: as above; format: cell-based; conditions: Homo sapiens, cervical carcinoma, 96 h MTT
Method: as §2, §1

PC-3 = assay: as above; format: cell-based; conditions: Homo sapiens; PC-3, prostatic cancer, 96 h MTT
Method: as §2, §1

HCT-116 = assay: as above; format: cell-based; conditions: Homo sapiens; HCT-116, colorectal cancer, 96 h MTT
Method: as §2, §1

[4] = system: paclitaxel-resistant MCF-7/T cells; assay: Growth inhibition of paclitaxel-resistant breast cancer cells; format: cell-based, human; conditions: for GI50: Homo sapiens, MCF7, MCF-7/T paclitaxel-resistant cells; for RI: resistance index: ratio of GI50 MCF-7/T to MCF-7
Method: as §1

[5] = system: paclitaxel-resistant A549/T cells; assay: cells; conditions: Homo sapiens, A549, 96 h; for inhibition at 5 µM / inhibition at 10 µM / inhibition at 20 µM: read-out: Growth inhibition rate
Method: as §9

MCF-7 cells = assay: Growth inhibition of parental breast cancer cells; format: cell-based; conditions: Homo sapiens, MCF7; MCF-7 parental cells
Method: as §1

MX-1 cells = assay: Growth inhibition of parental breast cancer cells; format: cell-based; conditions: Homo sapiens, MX1; MX-1 parental cells
Method: as §1

[6] = system: paclitaxel-resistant MX-1/T cells; assay: Growth inhibition of paclitaxel-resistant breast cancer cells; conditions: for GI50: Homo sapiens, read-out: GI50 ± SD; for RI: resistance index: ratio of GI50 MX-1/T to MX-1
Method: as §6, §7, §8

KB cells = assay: Growth inhibition of parental oral epidermoid carcinoma cells; format: cell-based; conditions: Homo sapiens
Method: as §1

MOLM-13 = assay: Cell growth inhibition assay, suspension cells, Trypan Blue counting, 72 h; format: cell-based; conditions: Homo sapiens, MOLM-13, leukemia
Text: as §2
(§3) Suspension cells: Leukemia cells HL-60, MOLM-13, and K562 were inoculated into a 24-well plate at a density of 0.5-1×10^5 cells/mL. Subsequently, the cells were incubated with different concentrations of compounds in an incubator for 72 h. Then, the culture plate was removed from the incubator. In each well, the cells and the compounds were mixed well; 50 μL of cell suspension was transferred and mixed well with 50 μL of Trypan Blue (0.4%), followed by counting microscopically.
(§4) Cell growth inhibition rate was calculated according to the following formula. The growth inhibition rate GI50 (the concentration that results in inhibiting cell growth by 50%) was calculated by GraphPadPrism5.
(§5) Growth inhibition rate=(1−Cell count of the drug group/Cell count of the control group)×100%.

K562 = assay: as above; format: cell-based; conditions: Homo sapiens, K562, leukemia
Text: as §2, §3, §4, §5

HL-60 = assay: as above; format: cell-based; conditions: Homo sapiens, HL-60, leukemia
Text: as §2, §3, §4, §5

[7] = system: paclitaxel-resistant A549/T cells; conditions: for GI50: A549/T cells, salts (Table 3)
Method: as §6, §7, §8, §10

A549/T xenograft = A549/T xenograft model in BALB/c-nu mice; format: in vivo; conditions: i.p. every other day, 10 times, colchicine 0.5 mg/kg, paclitaxel 10 mg/kg, methylaminocolchicine 0.25 and 0.5 mg/kg
Method: Male BALB/c-nu mice (aged 6-8 weeks and weighing 18-20 g) were purchased from Beijing HFK Bioscience Co., Ltd. A549/T cells in logarithmic growth phase were mixed with Matrigel, and inoculated subcutaneously in the right armpit of a BALB/c-nu mouse at a density of 5×10^6 cells/mouse.
The mental state of the mice was monitored every day. The mouse weight was measured and recorded, and mouse weight change curves were plotted based on the average body weight of each group. The long and short diameters of tumors were measured every two days, and the tumor volume was calculated according to the tumor volume calculation formula: tumor volume=(long diameter×short diameter^2)/2. Tumor growth curves were plotted (FIG. 1A).

Porcine brain tubulin [8] = target: T1, Porcine brain tubulin (Sus scrofa, UniProt P02550+P02554); parameters: In vitro tubulin polymerization assay was carried out using purified tubulin; purchased Cytoskeleton, Denver, CO BK011P; host or cells: porcine brain (tissue-purified); conditions: It has been known; cited from earlier work
Porcine brain tubulin [9] = target: T1, Porcine brain tubulin
Method: In vitro tubulin polymerization assay was carried out using purified tubulin. BK011P-Tubulin Polymerization Assay Kit (Cytoskeleton, Denver, CO) was used. Porcine brain tubulin solution (2 mg/mL) was prepared by using tubulin buffer (80 mM PIPES, 2.0 mM MgCl2, 0.5 mM EGTA, 15% v/v glycerol, and 1 mM GTP). […] Fluorescence intensities (ex-360 nm, em-450 nm) was measured and monitored every 1 min, for consecutive 80 min (FIG. 2).

[10] = Homo sapiens, A549 parental cells, read-out: GI50 ± SD
[11] = A549 cells, salts (Table 3), read-out: GI50
[12] = ratio of GI50 A549/T to A549, salts (Table 3)

T1 sequence (P02550 whole entry): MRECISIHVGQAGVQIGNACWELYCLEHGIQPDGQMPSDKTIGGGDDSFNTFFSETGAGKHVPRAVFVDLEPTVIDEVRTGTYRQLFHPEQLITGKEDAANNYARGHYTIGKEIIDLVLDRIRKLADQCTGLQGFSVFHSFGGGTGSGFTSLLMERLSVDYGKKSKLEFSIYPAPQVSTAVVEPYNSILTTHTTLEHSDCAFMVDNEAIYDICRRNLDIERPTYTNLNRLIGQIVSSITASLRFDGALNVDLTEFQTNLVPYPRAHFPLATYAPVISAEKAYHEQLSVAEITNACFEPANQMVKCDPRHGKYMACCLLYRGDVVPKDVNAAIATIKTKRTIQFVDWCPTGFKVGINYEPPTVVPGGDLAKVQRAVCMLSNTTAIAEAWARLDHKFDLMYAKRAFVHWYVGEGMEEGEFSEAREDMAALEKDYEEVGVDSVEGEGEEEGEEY
T1 sequence (P02554 whole entry): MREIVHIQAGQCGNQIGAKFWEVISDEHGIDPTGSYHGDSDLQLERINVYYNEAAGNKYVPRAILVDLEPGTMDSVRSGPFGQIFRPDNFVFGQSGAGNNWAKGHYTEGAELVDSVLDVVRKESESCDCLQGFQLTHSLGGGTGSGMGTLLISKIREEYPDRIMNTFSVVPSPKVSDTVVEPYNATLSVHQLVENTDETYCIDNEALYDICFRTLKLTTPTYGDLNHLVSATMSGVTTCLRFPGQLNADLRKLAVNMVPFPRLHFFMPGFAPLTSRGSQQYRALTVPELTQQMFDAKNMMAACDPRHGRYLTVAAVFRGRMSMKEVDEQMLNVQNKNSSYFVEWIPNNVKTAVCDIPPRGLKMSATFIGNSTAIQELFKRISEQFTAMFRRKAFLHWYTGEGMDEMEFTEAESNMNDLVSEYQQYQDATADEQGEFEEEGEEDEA

Compound	GI50 (A549 cells; [10]) [nM]	GI50 [1] [nM]	GI50 [3] [nM]	GI50 [4] [nM]	GI50 (MCF-7 cells) [nM]	GI50 (MX-1 cells) [nM]	GI50 [6] [nM]	GI50 (KB cells) [nM]	GI50 (A549 cells; [11]) [nM]	GI50 [7] [nM]	RI: resistance index [7, 12]	inhibition at 5 µM [5] [%]	inhibition at 10 µM [5] [%]	inhibition at 20 µM [5] [%]	further results
CNc1ccc2c(cc1=O)C(NC(C)=O)CCc1cc(OC)c(OC)c(OC)c1-2 (stereo not drawn) [Methylaminocolchicine]	6.88 ± 0.67	36.3 ± 6.77	23.64 ± 0.06	47.6 ± 2.82	20.7 ± 2.8	11.2 ± 1.17	11.4 ± 1.2	6.41 ± 2.39	–	–	–	–	–	–	Growth inhibition rate ([2]; methylaminocolchicine alone 40 nM): 3.08% and 0.97%; Growth inhibition rate ([2]; methylaminocolchicine alone 80 nM): 42.77% and 37.66% and 38.92%; GI50 (HepG-2): 7.05 ± 1.74 nM; GI50 (Hela): 9.97 ± 2.34 nM; GI50 (PC-3): 9.19 ± 0.81 nM; GI50 (HCT-116): 9.16 ± 4.19 nM; inhibition at 0.02 µM ([5]; read-out: Growth inhibition rate, A549/T, 96 h, methylaminocolchicine alone 20 nM): 1%; inhibition at 0.08 µM ([5]; read-out: Growth inhibition rate, A549/T, 96 h, methylaminocolchicine alone 80 nM): 34.5%; GI50 (MOLM-13): 4.87 ± 0.86 nM; GI50 (K562): 5 ± 0.32 nM; GI50 (HL-60): 3.5 ± 0.14 nM
Methylaminocolchicine Mesylate	–	–	–	–	–	–	–	–	17	29.9	1.76	–	–	–	–
CN(C)CC#Cc1ccc(OCCCc2sc(N3CCc4cccc(C(=O)Nc5nc6ccccc6s5)c4C3)nc2C(=O)O)c(F)c1 [A1155463]	–	–	–	–	–	–	–	–	–	–	–	6.97	12.1	23.7	–
Methylaminocolchicine p-Toluenesulfonate	–	–	–	–	–	–	–	–	18.3	72.7	3.98	–	–	–	–
COc1cc2c(c(OC)c1OC)-c1ccc(OC)c(=O)cc1[C@@H](NC(C)=O)CC2 [Colchicine]	38.4 ± 3.37	88.8 ± 9.83	1083 ± 2.37	251 ± 61	51.4 ± 10.8	57.9 ± 7.55	838.2 ± 2.62	10.9 ± 1.26	–	–	–	–	–	–	Tumor growth inhibition (A549/T xenograft): neither paclitaxel nor colchicine can significantly inhibit the tumor growth; GI50 (HepG-2): 57.7 ± 5.41 nM; GI50 (Hela): 124 ± 8.41 nM; GI50 (PC-3): 90.5 ± 25.2 nM; GI50 (HCT-116): 79.3 ± 6.59 nM; GI50 (MOLM-13): 11.6 ± 1.21 nM; GI50 (K562): 10.7 ± 1.5 nM; GI50 (HL-60): 9.3 ± 3.7 nM
Methylaminocolchicine Tartrate	–	–	–	–	–	–	–	–	16.2	32.4	1.99	–	–	–	–
CC(=O)O[C@H]1C(=O)[C@@]2(C)[C@H]([C@H](OC(=O)c3ccccc3)[C@]3(O)C[C@H](OC(=O)[C@H](O)[C@@H](NC(=O)c4ccccc4)c4ccccc4)C(C)=C1C3(C)C)[C@]1(OC(C)=O)CO[C@@H]1C[C@@H]2O [Paclitaxel]	23.1 ± 1.39	604 ± 28.6	4760 ± 75	941 ± 265	58 ± 9.62	67.3 ± 5.92	1130 ± 228	3.52 ± 0.95	–	–	–	–	–	–	Tumor growth inhibition (A549/T xenograft): neither paclitaxel nor colchicine can significantly inhibit the tumor growth; RI: resistance index [1]: 171.48; Effect on tubulin polymerization (known action of control drugs) (Porcine brain tubulin [8]): promotes tubulin polymerization; RI: resistance index [4]: 16.24; RI: resistance index [6]: 16.73; RI: resistance index ([7]; ratio of GI50 A549/T to A549): 209.45
Cc1c(-c2ccc(N3CCc4cccc(C(=O)Nc5nc6ccccc6s5)c4C3)nc2C(=O)O)cnn1CC12CC3CC(CC(C3)C1)C2 [A1331852]	–	–	–	–	–	–	–	–	–	–	–	5.17	11.2	17.5	–
CC1(C)CCC(CN2CCN(c3ccc(C(=O)NS(=O)(=O)c4ccc(NCC5CCOCC5)c([N+](=O)[O-])c4)c(Oc4cnc5[nH]ccc5c4)c3)CC2)=C(c2ccc(Cl)cc2)C1 [Venetoclax]	–	–	–	–	–	–	–	–	–	–	–	23.2	57.7	95.5	–
Methylaminocolchicine Sulfate	–	–	–	–	–	–	–	–	21.9	42.4	1.94	–	–	–	–
CC[C@]1(O)C[C@H]2CN(CCc3c([nH]c4ccccc34)[C@@](C(=O)OC)(c3cc4c(cc3OC)N(C=O)[C@H]3[C@@](O)(C(=O)OC)[C@H](OC(C)=O)[C@]5(CC)C=CCN6CC[C@]43[C@@H]65)C2)C1 [Vincristine]	45.6 ± 3.68	268 ± 13.1	1130 ± 12.7	576 ± 80.7	159 ± 44.6	16.7 ± 6.87	262 ± 6.8	2.69 ± 1.53	–	–	–	–	–	–	RI: resistance index [1]: 99.68; Effect on tubulin polymerization (known action of control drugs) (Porcine brain tubulin [8]): inhibits it; Effect on tubulin polymerization (Porcine brain tubulin [9]): Like vincristine, colchicine could inhibit tubulin polymerization; RI: resistance index [4]: 3.63; RI: resistance index [6]: 14.47; RI: resistance index ([7]; ratio of GI50 A549/T to A549): 24.7
Methylaminocolchicine Hydrochloride	–	–	–	–	–	–	–	–	16.9	63.7	3.77	–	–	–	–
CC1(C)CCC(c2ccc(Cl)cc2)=C(CN2CCN(c3ccc(C(=O)NS(=O)(=O)c4ccc(N[C@H](CCN5CCOCC5)CSc5ccccc5)c(S(=O)(=O)C(F)(F)F)c4)cc3)CC2)C1 [Navitoclax]	–	–	–	–	–	–	–	–	–	–	–	2.84	67.7	96.3	–

From patent US20240238223A1 (Shenyang Pharmaceutical University, priority 2023, published 2024)
